# Assay results from patent publication US20250109135A1, “NOVEL ISOINDOLINONE DERIVATIVE COMPOUNDS AS CASPASE INHIBITORS” (INNOVO THERAPEUTICS INC., priority 2022, published 2025).
# Read-outs that look alike come from different tables or passages of the source.
# What was measured:
# [1] = tested on: Secreted IL-1β in THP-1 cells; experiment: Interleukin-1β inhibitory activity in human monocytic cells THP-1 (ELISA); format: cell-based; conditions: compound 100 nM, PMA-differentiated THP-1, LPS 10 μg/ml then 5 mM ATP, 24 h
# Experimental: Caspase-1 is known as […] (ICE). Activated Caspase-1 is involved in the cleavage of pro-form IL-1β to produce the mature form, which is then secreted to induce inflammation. Therefore, the compounds identified in Experimental example 1 were tested to determine if their Caspase-1 inhibitory activity affected the production of […].
# THP-1 (ATCC) cells were cultured in RPMI 1640 (Hyclone) growth medium comprising 10% Fetal bovine serum (FBS, Gibco) and antibiotics (100 U/ml Penicillin, 0.1 mg/ml Streptomycin, Cytiva) under 37° C., 5% CO2 conditions. Cultured THP-1 cells were seeded in growth medium to a concentration of 3×10^5 cells/well in 24-well plates (Celvest) and then treated with 1 μM Phorbol 12-myristate 13-acetate (PMA) (Sigma) for 24 hours to induce differentiation. Differentiated THP-1 were pre treated with 10 μg/ml Lipopolysaccharide (LPS, from E. coli 0111:B4 (InvivoGen)) in serum free RPMI 1640 medium for 24 hours to induce an inflammatory response. After removal of LPS, the compounds were pretreated for 1 h at a concentration of 100 nM using the same medium, followed by the addition of 5 mM ATP (InvivoGen) and incubation for 24 h in an incubator. The treated medium was collected and centrifuged, and IL-1β was quantified using an Enzyme linked immunoassay kit (ELISA kit, R&D system), and absorbance was measured at 450 nm using a CLARIOstar Plus spectrometer. Inhibitory activity was denoted as a if it was 50% or more, b if it was 30% or more but less than 50%, c if it was 10% or more but less than 30%, and d if it was less than 10%.
# Jurkat cells = experiment: Apoptosis inhibition activity in human T-lymphocyte cells Jurkat (anti-FAS antibody, intracellular ATP); format: cell-based; conditions: compound 50 nM, 1 μg/ml anti-FAS antibody 24 h, ATP luminescence
# Experimental: To evaluate the effect of the compound of the present invention on apoptosis, Jurkat (ATCC) cells were treated with anti-FAS antibody CH-11 (Merck) to induce apoptosis via the Fas (CD95) receptor, which was assessed by the amount of intracellular ATP.
# Jurkat cells were cultured in RPMI 1640 growth medium comprising 10% FBS and antibiotics (100 U/ml Penicillin, 0.1 mg/ml Streptomycin) under 37° C., 5% CO2 conditions. Cultured cells were seeded in growth medium to a concentration of 8×10^4 cells/well in 96-well plates (SPL), pretreated with compound at a concentration of 50 nM for 1 hour, and then treated with 1 μg/ml anti-FAS antibody for 24 hours in an incubator. After 24 h, an ATP lite Luminescence assay kit (PerkinElmer) was used to measure ATP and luminescence was measured at 580 nm using a CLARIOstar Plus spectrometer. If the inhibitory activity is 30% or more, it is denoted as a′, if it is 20% or more but less than 30%, it is denoted as b′, if it is 10% or more but less than 20%, it is denoted as c′, and if it is less than 10%, it is denoted as d′.
# [2] = target: T1, recombinant human Caspase-1 (Homo sapiens, UniProt P29466); experiment: Caspase-1 inhibitory activity, fluorescent substrate Ac-YVAD-AFC; format: biochemical
# T1 construct: purchased Enzo life science
# T1 sequence (P29466 120-297 limits assumed): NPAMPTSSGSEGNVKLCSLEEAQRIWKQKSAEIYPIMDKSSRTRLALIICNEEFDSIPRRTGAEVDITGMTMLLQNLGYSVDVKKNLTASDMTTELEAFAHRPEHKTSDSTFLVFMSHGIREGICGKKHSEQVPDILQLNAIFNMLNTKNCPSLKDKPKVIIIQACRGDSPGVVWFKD
# T1 sequence (P29466 317-404 limits assumed): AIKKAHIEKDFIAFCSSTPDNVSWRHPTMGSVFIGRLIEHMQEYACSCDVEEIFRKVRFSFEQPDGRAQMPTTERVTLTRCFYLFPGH
# Experimental: To determine the Caspase-1 inhibitory activity of the compounds of the present invention prepared in Example, Caspase-1 activity was measured using a substrate with a fluorescent dye attached to it. […] The compound was dissolved in DMSO and stored at −20° C. Enzymatic reactions were carried out in a buffer comprising 50 mM HEPES (pH 8.0), 50 mM KCl, 200 mM NaCl, 10 mM DTT, 0.1% CHAPS (w/v). Enzyme inactivation was measured in the presence of different concentrations of the compound using the fluorescent substrate N-Acetyl-Tyr-Val-Ala-Asp-7-amido-4-trifluoromethylcoumarin (Ac-YVAD-AFC) (Sigma) at a concentration of 50 μM and 1 unit of recombinant human Caspase-1 (Enzo life science). A CLARIOstar Plus spectrometer (BMG Labtech) was used to measure the reaction rate as a function of time in the 400/505 nm (Ex/Em) wavelength band. […] If kobs/[I] is 20 or more, it is denoted as A, if it is 10 or more but less than 20, it is denoted as B, if it is 1 or more but less than 10, it is denoted as C, and if it is less than 1, it is denoted as D.
# In the above equation, At means the enzyme reaction rate at time t (min), and Amax means the maximum reaction rate.
# [3] = pH 8, 1 unit recombinant human Caspase-1, 50 μM Ac-YVAD-AFC, read-out: kobs/[I] Caspase-1
# [4] = pH 8, read-out: kobs/[I] Caspase-1
"kinact/KI [2, 3] [M⁻¹ s⁻¹]",Compound,inhibition at 0.1 µM [1] [%],inhibition at 0.05 µM (Jurkat cells) [%],"kinact/KI [2, 4] [M⁻¹ s⁻¹]"
< 0.0167,"CCC(C(=O)NC(CC(=O)O)C(=O)CF)N1Cc2ccc(N3CCN(S(C)(=O)=O)CC3)cc2C1=O (stereo not drawn) [Compound 6, 5-fluoro-3-(2-(6-(4-(methylsulfonyl)piperazin-1-yl)-1-oxoisoindolin-2-yl)butanamido)-4-oxopentanoic acid]",10 to 30,10 to 20,–
> 0.333,"CCC(C(=O)NC(CC(=O)O)C(=O)CF)N1Cc2ccc(-c3coc4ccccc34)cc2C1=O (stereo not drawn) [Compound 22, 3-(2-(6-(benzofuran-3-yl)-1-oxoisoindolin-2-yl)butanamido)-5-fluoro-4-oxopentanoic acid]",30 to 50,10 to 20,–
–,"CCC(C(=O)NC(CC(=O)O)C(=O)CF)N1Cc2ccc(-c3csc4ccccc34)cc2C1=O (stereo not drawn) [Compound 16, 3-(2-(6-(benzo[b]thiophen-3-yl)-1-oxoisoindolin-2-yl)butanamido)-5-fluoro-4-oxopentanoic acid]",≥ 50,20 to 30,> 0.333
–,"CC[C@@H](C(=O)NC(CC(=O)O)C(=O)CF)N1Cc2cc(-c3coc4ccccc34)ccc2C1=O (stereo partly drawn) [Compound 57, 3-((S)-2-(5-(benzofuran-3-yl)-1-oxoisoindolin-2-yl)butanamido)-5-fluoro-4-oxopentanoic acid]",10 to 30,20 to 30,0.0167 to 0.167
0.0167 to 0.167,"CC[C@@H](C(=O)N[C@H](CC(=O)O)C(=O)COc1c(F)c(F)cc(F)c1F)N1Cc2ccc(-c3ccc4c(c3)OCCO4)cc2C1=O [Compound 54, (R)-3-((S)-2-(6-(2,3-dihydrobenzo[b][1,4]dioxin-6-yl)-1-oxoisoindolin-2-yl)butanamido)-4-oxo-5-(2,3,5,6-tetrafluorophenoxy)pentanoic acid]",30 to 50,< 10,–
0.0167 to 0.167,"CCC(C(=O)NC(CC(=O)O)C(=O)CF)N1Cc2ccc(-c3ccccc3)cc2C1=O (stereo not drawn) [Compound 1, 5-fluoro-4-oxo-3-(2-(1-oxo-6-phenylisoindolin-2-yl)butanamido)pentanoic acid]",10 to 30,20 to 30,–
0.0167 to 0.167,"CCC(C(=O)NC(CC(=O)O)C(=O)CF)N1Cc2ccc(-c3ccc4[nH]c(=O)[nH]c4c3)cc2C1=O (stereo not drawn) [Compound 8, 5-fluoro-4-oxo-3-(2-(1-oxo-6-(2-oxo-2,3-dihydro-1H-benzo[d]imidazol-5-yl)isoindolin-2-yl)butanamido)pentanoic acid]",≥ 50,10 to 20,–
–,"CC[C@@H](C(=O)NC(CC(=O)O)C(=O)CF)N1Cc2cc(-c3ccc4c(c3)OCCO4)ccc2C1=O (stereo partly drawn) [Compound 58, 3-((S)-2-(5-(2,3-dihydrobenzo[b][1,4]dioxin-6-yl)-1-oxoisoindolin-2-yl)butanamido)-5-fluoro-4-oxopentanoic acid]",10 to 30,10 to 20,0.0167 to 0.167
0.0167 to 0.167,"CCC(C(=O)NC(CC(=O)O)C(=O)CF)N1Cc2ccc(-c3ccc(OC)nc3)cc2C1=O (stereo not drawn) [Compound 13, 5-fluoro-3-(2-(6-(6-methoxypyridin-3-yl)-1-oxoisoindolin-2-yl)butanamido)-4-oxopentanoic acid]",≥ 50,20 to 30,–
0.0167 to 0.167,"CCC(C(=O)NC(CC(=O)O)C(=O)CF)N1Cc2ccc(-c3ccc(C(C)=O)cc3)cc2C1=O (stereo not drawn) [Compound 18, 3-(2-(6-(4-acetylphenyl)-1-oxoisoindolin-2-yl)butanamido)-5-fluoro-4-oxopentanoic acid]",≥ 50,10 to 20,–
0.0167 to 0.167,"CCC(C(=O)NC(CC(=O)O)C(=O)CF)N1Cc2ccc(-c3ccc4occc4c3)cc2C1=O (stereo not drawn) [Compound 26, 3-(2-(6-(benzofuran-5-yl)-1-oxoisoindolin-2-yl)butanamido)-5-fluoro-4-oxopentanoic acid]",30 to 50,≥ 30,–
0.167 to 0.333,"CC[C@@H](C(=O)N[C@@H](CC(=O)O)C(=O)COc1c(F)c(F)cc(F)c1F)N1Cc2ccc(-c3ccc4c(c3)OCCO4)cc2C1=O [Compound 51, (S)-3-((S)-2-(6-(2,3-di hydrobenzo[b][1,4]dioxin-6-yl)-1-oxoisoindolin-2-yl)butanamido)-4-oxo-5-(2,3,5,6-tetrafluorophenoxy)pentanoic]",30 to 50,20 to 30,–
0.0167 to 0.167,"CCC(C(=O)NC(CC(=O)O)C(=O)CF)N1Cc2ccc(-c3cncc4ccccc34)cc2C1=O (stereo not drawn) [Compound 29, 5-fluoro-3-(2-(6-(isoquinolin-4-yl)-1-oxoisoindolin-2-yl)butanamido)-4-oxopentanoic acid]",< 10,< 10,–
0.167 to 0.333,"CC(C)[C@@H](C(=O)NC(CC(=O)O)C(=O)CF)N1Cc2ccc(-c3coc4ccccc34)cc2C1=O (stereo partly drawn) [Compound 44, 3-((S)-2-(6-(benzofuran-3-yl)-1-oxoisoindolin-2-yl)-3-methylbutanamido)-5-fluoro-4-oxopentanoic acid]",≥ 50,20 to 30,–
0.0167 to 0.167,"CCC(C(=O)NC(CC(=O)O)C(=O)CF)N1Cc2ccc(Br)cc2C1=O (stereo not drawn) [Compound 9, 3-(2-(6-bromo-1-oxoisoindolin-2-yl)butanamido)-5-fluoro-4-oxopentanoic acid]",30 to 50,≥ 30,–
0.0167 to 0.167,"CCC(C(=O)NC(CC(=O)O)C(=O)CF)N1Cc2ccc(-c3ccc4c(c3)OCCO4)cc2C1=O (stereo not drawn) [Compound 27, 3-(2-(6-(2,3-dihydrobenzo[b][1,4]dioxin-6-yl)-1-oxoisoindolin-2-yl)butanamido)-5-fluoro-4-oxopentanoic acid]",10 to 30,≥ 30,–
0.0167 to 0.167,"CC[C@@H](C(=O)NC(CC(=O)O)C(=O)CF)N1Cc2ccc(-c3ccc4c(c3)OCCO4)cc2C1=O (stereo partly drawn) [Compound 55, 3-((S)-2-(6-(2,3-dihydrobenzo[b][1,4]dioxin-6-yl)-1-oxoisoindolin-2-yl)butanamido)-5-fluoro-4-oxopentanoic acid]",30 to 50,≥ 30,–
–,"O=C(O)CC(NC(=O)CN1Cc2ccc(-c3coc4ccccc34)cc2C1=O)C(=O)CF (stereo not drawn) [Compound 39, 3-(2-(6-(benzofuran-3-yl)-1-oxoisoindolin-2-yl)acetamido)-5-fluoro-4-oxopentanoic acid]",< 10,< 10,0.0167 to 0.167
